# Assays:
# cortical neurons = experiment: OGD, viable neurons counted by FACS (Annexin V / 7AAD); assay type: cell-based, mouse; conditions: 0.03 and 0.1 μg/ml (0.1 and 0.3 μM); 24 hrs pretreatment; 90 min OGD (vehicle approximately 45%)
# Procedure: Embryonic day 16 timed pregnant CD1 out-bred mice were obtained from Charles River Laboratories (Charles River; QC, Canada). Primary cortical neuron cultures were prepared from cerebral cortices of wild type (WT) CD1 mouse embryos as described previously, with the following modifications. Pregnant CD1 females were heavily anaesthetized with isoflurane vapor (Benson Medical Industries, Inc., Markham, ON) before being euthanized by decapitation. The embryonic day 16 (E16) fetuses were immediately removed from the sacrificed pregnant females by cesarean section and placed in ice-cold Hank's Balanced Salt Solution (HBSS) (GIBCO; Invitrogen, Amarillo, Calif.). The meninges were removed from the brains and cortices were isolated under a dissecting microscope. […] The trypsin and inhibitor solutions were discarded and each cell pellet was suspended in 1 ml of cortical neuron plating medium (Neurobasal medium (Invitrogen, Amarillo, Calif.) with 10% fetal bovine serum (GIBCO; Invitrogen; Amarillo, Calif.), 2% B27 supplement, 1 mM L-glutamine, and 1% Gentamycin (Invitrogen; Amarillo, Calif.), triturated 10 times and counted using trypan blue exclusion and a hemocytometer. Cortical neurons were plated in 96-well plates (Corning; Lowell, Mass.) that were pre-coated with poly-D-lysine (PDL; Sigma-Aldrich; Oakville, ON) according to the procedure described by the manufacturer. […]
# [1] = system: primary cultures of mouse cortical neurons; experiment: Toxicity of high concentrations to cortical neuron cultures; assay type: cell-based; conditions: concentrations of 10 μg/ml or above
structure (smiles),measurement,setting,value
O=c1c(O)c(-c2ccc(O)c(O)c2)oc2cc(O)cc(O)c12 [Q],"neuronal survival (viable neurons relative to control, no OGD)",cortical neurons,55%
same,toxicity to primary cultures of mouse cortical neurons,[1],increasingly toxic
"Oc1cc(O)c2c(c1)O[C@H](c1ccc(O)c(O)c1)[C@H](O)C2 [E, (2R,3R)-2-(3,4-dihydroxyphenyl)-3,4-dihydro-2H-chromene-3,5,7-triol]","neuronal survival (viable neurons relative to control, no OGD)",cortical neurons,55%
same,toxicity to primary cultures of mouse cortical neurons,[1],increasingly toxic

# Reference: patent US20170027902A1, “Use of a Composition Comprising a Flavonol, A Flavonoid, and a Fatty Acid in the Treatment of Oxidative Injuries Due to Mitochondrial Dysfunction” (priority 2014, published 2017)
